Bounds are passed on as bounds.

For this experiment, the target named is T1, human acetyl-CoA carboxylase 2 (ACC2) (Homo sapiens, UniProt O00763).
T1 construct: The cDNA encoding amino acids 144 to 2458 of human acetyl-CoA carboxylase 2; made in house; host or cells: Sf9 insect cells (baculovirus, pFastBac1)
T1 sequence (O00763 144-2458): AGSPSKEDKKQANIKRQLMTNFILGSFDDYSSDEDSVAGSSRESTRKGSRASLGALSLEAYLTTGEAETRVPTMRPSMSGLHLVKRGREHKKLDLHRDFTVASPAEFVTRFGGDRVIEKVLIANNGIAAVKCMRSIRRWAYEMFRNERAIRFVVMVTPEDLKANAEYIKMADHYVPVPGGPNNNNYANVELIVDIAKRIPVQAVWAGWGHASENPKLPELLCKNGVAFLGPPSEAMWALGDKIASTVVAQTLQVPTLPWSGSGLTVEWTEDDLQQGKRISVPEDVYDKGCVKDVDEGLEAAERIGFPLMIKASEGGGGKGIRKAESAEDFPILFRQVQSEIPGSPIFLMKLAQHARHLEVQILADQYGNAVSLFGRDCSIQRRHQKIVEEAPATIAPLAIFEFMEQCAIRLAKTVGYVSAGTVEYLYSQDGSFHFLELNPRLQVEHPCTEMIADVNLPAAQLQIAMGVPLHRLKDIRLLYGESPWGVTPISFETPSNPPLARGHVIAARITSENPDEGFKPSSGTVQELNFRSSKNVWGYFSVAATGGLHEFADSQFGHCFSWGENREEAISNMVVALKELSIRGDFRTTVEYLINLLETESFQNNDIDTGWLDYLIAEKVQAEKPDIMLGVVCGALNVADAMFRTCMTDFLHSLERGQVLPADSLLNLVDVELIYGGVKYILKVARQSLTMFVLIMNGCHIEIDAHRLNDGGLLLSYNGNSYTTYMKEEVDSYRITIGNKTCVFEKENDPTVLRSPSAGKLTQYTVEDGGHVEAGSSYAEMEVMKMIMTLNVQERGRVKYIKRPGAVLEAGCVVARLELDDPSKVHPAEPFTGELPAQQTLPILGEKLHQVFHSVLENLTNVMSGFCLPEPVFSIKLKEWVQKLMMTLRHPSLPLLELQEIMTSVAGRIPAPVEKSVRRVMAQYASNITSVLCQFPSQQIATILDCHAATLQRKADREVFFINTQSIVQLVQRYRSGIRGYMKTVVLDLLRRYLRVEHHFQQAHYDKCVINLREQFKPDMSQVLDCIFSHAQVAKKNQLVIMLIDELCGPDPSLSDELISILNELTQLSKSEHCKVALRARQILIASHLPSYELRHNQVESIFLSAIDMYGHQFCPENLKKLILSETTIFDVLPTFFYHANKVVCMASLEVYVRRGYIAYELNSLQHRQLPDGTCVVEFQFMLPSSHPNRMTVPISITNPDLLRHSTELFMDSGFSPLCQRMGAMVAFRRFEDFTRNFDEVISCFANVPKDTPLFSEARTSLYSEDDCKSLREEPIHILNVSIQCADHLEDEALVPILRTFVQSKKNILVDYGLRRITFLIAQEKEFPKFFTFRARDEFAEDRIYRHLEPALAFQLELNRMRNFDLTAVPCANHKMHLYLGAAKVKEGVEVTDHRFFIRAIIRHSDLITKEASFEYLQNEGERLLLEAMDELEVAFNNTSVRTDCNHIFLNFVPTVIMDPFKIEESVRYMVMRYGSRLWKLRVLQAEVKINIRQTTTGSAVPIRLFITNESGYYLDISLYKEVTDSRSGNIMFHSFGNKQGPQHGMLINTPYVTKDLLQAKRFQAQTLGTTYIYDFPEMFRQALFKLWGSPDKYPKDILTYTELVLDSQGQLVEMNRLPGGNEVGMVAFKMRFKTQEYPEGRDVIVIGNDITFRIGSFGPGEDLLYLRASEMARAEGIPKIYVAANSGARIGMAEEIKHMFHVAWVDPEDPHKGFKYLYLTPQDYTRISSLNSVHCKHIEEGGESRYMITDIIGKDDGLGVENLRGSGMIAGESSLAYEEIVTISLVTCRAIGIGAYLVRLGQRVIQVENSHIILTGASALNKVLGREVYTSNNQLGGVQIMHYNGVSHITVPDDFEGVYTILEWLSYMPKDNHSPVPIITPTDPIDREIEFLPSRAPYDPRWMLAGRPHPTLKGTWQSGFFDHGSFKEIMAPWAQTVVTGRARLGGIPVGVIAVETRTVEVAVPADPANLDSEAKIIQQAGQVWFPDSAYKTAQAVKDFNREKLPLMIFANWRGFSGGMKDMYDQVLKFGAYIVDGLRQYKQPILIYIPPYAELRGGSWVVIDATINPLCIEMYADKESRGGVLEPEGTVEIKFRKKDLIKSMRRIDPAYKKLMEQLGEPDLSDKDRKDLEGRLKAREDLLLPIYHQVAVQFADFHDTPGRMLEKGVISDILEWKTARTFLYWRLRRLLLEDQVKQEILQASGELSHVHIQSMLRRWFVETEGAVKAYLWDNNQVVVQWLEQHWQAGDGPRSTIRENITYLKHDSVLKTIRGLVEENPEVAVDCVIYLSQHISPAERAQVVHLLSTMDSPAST
Kind of experiment: Acetyl-CoA carboxylase enzyme assay (malonyl-CoA formation by LC/MS/MS). The class given is biochemical. The settings on record: recombinant human ACC2 (aa 144-2458); read-out: IC50 ACC2. An outline of the steps: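 Malonyl-CoA formation was read by LC/MS/MS MRM against a [13C3]-malonyl-CoA internal standard, after acetic acid quench. The enzyme was baculovirus/Sf9-expressed human ACC2 residues 144–2458, given 15 minutes room-temperature compound preincubation in HEPES pH 7.5 buffer with MgCl2, citrate and DTT. Substrate solution held 50 μM acetyl-CoA, 120 μM ATP and 2 mM KHCO3.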
As usually defined, the IC50 is the concentration that gives 50% inhibition. For `C[C@@H](NC(=O)[C@H]1CC[C@H](NS(=O)(=O)c2ccc3nc(OC(C)(C)CO)ccc3c2)CC1)c1ccc(F)cc1` [Example 80, (1r,4R)-N-((R)-1-(4-fluorophenyl)ethyl)-4-(2-(1-hydroxy-2-methylpropan-2-yloxy)quinoline-6-sulfonamido)cyclohexanecarboxamide], the IC50 worked out at 40 nM.
As to `C[C@@H](NC(=O)[C@H]1CC[C@H](NS(=O)(=O)c2ccc3c(c2)N(C)CCN3C)CC1)c1ccc(F)cc1` [Example 133, (1r,4R)-4-(1,4-dimethyl-1,2,3,4-tetrahydroquinoxaline-6-sulfonamido)-N-((R)-1-(4-fluorophenyl)ethyl)cyclohexanecarboxamide], the IC50 was determined as 46 nM.
Consider `C[C@H]1COCCN1C(=O)[C@H]1CC[C@H](NS(=O)(=O)c2ccc3c(C#N)c(C4CC4)n(C)c3c2)CC1` [Example 421, 3-cyano-2-cyclopropyl-1-methyl-N-((1S,4r)-4-((S)-3-methylmorpholine-4-carbonyl)cyclohexyl)-1H-indole-6-sulfonamide], for which the half-inhibitory concentration (IC50) stood at 50 nM.
On to `O=C(NCCc1ccccc1)[C@H]1CC[C@H](NS(=O)(=O)c2ccc3[nH]c(-c4ccccc4)nc3c2)CC1` [Example 628, (1r,4r)-N-phenethyl-4-(2-phenyl-1H-benzo[d]imidazole-5-sulfonamido)cyclohexanecarboxamide], for which the concentration for half-maximal inhibition (IC50) was 408 nM.
Consider `CC(O)Cc1cc2ccc(S(=O)(=O)N[C@H]3CC[C@H](C(=O)N[C@H](C)c4ccc(F)cc4)CC3)cc2[nH]1` (stereo partly drawn) [Example 316, (1r,4R)-N-((R)-1-(4-fluorophenyl)ethyl)-4-(2-(2-hydroxypropyl)-1H-indole-6-sulfonamido)cyclohexanecarboxamide], for which the IC50 was 110 nM.
Regarding `C[C@@H](NC(=O)[C@H]1CC[C@H](NS(=O)(=O)c2ccc3c(c2)C(NC(=O)C(F)(F)F)CCN3C(=O)C(F)(F)F)CC1)c1ccc(F)cc1` (stereo partly drawn) [Example 184, (1r,4R)-N-((R)-1-(4-fluorophenyl)ethyl)-4-(4-(2,2,2-trifluoroacetamido)-1-(2,2,2-trifluoroacetyl)-1,2,3,4-tetrahydroquinoline-6-sulfonamido)cyclohexanecarboxamide], the IC50 was over 35000 nM.
As for `CC(C)(C)OC(=O)N1CCN(C(=O)[C@H]2CC[C@H](NS(=O)(=O)c3cnc4ccccc4c3)CC2)[C@@H](c2ccccc2)C1` [Example 84, (S)-tert-butyl 3-phenyl-4-((1r,4S)-4-(quinoline-3-sulfonamido)cyclohexanecarbonyl)piperazine-1-carboxylate], the IC50 is 45 nM.
For the molecule `CC(NC(=O)[C@H]1CC[C@H](NS(=O)(=O)c2cnc3ccccc3c2)CC1)c1ccc(F)c(F)c1` (some centres unmarked) [Example 66, (1r,4r)-N-(1-(3,4-difluorophenyl)ethyl)-4-(quinoline-3-sulfonamido)cyclohexanecarboxamide], the 50% inhibitory concentration (IC50) stood at 205 nM.
With `C[C@@H](NC(=O)[C@H]1CC[C@H](NS(=O)(=O)c2ccc3c(c2)N(C)[C@H](C(=O)O)CC3)CC1)c1ccc(F)cc1` [Example 250, (S)-7-(N-((1R,4S)-4-((R)-1-(4-fluorophenyl)ethylcarbamoyl)cyclohexyl)sulfamoyl)-1-methyl-1,2,3,4-tetrahydroquinoline-2-carboxylic acid] the figure was 595 nM; with `CN1CCN(c2ccc(-c3nc4cc(S(=O)(=O)N[C@H]5CC[C@H](c6nnc(C(C)(C)C)o6)CC5)ccc4[nH]3)cc2)CC1` [Example 10, N-((1r,4r)-4-(5-tert-butyl-1,3,4-oxadiazol-2-yl)cyclohexyl)-2-(4-(4-methylpiperazin-1-yl)phenyl)-1H-benzo[d]imidazole-5-sulfonamide], 115 nM; with `Cc1c[nH]c2ncc(S(=O)(=O)N[C@H]3CC[C@H](C(=O)N[C@H](C)c4ccc(F)cc4)CC3)cc12` [Example 138, (1r,4R)-N-((R)-1-(4-fluorophenyl)ethyl)-4-(3-methyl-1H-pyrrolo[2,3-b]pyridine-5-sulfonamido)cyclohexanecarboxamide], 147 nM.

For the origin of these results see patent US8697739B2, “Bicyclic acetyl-CoA carboxylase inhibitors and uses thereof” (Novartis AG, priority 2010, dated 2014).
